Results: ChEMBL document CHEMBL5143673, “The evaluation of N-propargylamine-2-aminotetralin as an inhibitor of monoamine oxidase” (Bioorg Med Chem Lett, 2022)

Experiments:
[1] = target: T1, Amine oxidase [flavin-containing] A (Homo sapiens, UniProt P21397); assay: Inhibition of human recombinant MAOA using kynuramine substrate incubated for 20 mins by fluorescence spectrophotometry; assay type: toxicity
T1 sequence (P21397 whole entry): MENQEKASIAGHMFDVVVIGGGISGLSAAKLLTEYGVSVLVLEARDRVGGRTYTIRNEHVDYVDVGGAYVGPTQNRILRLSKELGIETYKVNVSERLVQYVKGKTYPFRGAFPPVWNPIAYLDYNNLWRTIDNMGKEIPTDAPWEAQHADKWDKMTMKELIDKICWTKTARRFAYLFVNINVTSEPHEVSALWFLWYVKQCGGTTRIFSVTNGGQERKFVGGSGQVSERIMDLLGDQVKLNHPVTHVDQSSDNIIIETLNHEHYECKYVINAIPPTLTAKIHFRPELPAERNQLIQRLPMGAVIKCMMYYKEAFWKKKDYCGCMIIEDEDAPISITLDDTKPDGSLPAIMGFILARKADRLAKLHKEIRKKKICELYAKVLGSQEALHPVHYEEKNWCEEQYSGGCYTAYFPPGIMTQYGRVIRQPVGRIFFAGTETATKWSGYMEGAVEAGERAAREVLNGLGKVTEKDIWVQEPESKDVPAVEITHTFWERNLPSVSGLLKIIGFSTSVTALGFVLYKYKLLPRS

MAO-A [2] = target: T2, MAO-A (Homo sapiens, UniProt P21397); assay: Inhibition of human recombinant MAOA assessed as enzyme activity recovery level at 4 times IC50 using kynuramine substrate incubated for 15 mins followed by without dialysis by fluorescence spectrophotometry; assay type: toxicity; parameters: scale not given: the % may be the effect or the level left; conditions: probe kynuramine, read-out: Activity
T2 sequence (P21397 whole entry): T1 sequence (P21397 whole entry)

[3] = target: T3, Amine oxidase [flavin-containing] B (Homo sapiens, UniProt P27338); assay: Time dependent inhibition of human recombinant MAOB at 0.25 to 1.25 uM using kynuramine substrate by fluorescence spectrophotometry based L-B plot analysis
T3 sequence (P27338 whole entry): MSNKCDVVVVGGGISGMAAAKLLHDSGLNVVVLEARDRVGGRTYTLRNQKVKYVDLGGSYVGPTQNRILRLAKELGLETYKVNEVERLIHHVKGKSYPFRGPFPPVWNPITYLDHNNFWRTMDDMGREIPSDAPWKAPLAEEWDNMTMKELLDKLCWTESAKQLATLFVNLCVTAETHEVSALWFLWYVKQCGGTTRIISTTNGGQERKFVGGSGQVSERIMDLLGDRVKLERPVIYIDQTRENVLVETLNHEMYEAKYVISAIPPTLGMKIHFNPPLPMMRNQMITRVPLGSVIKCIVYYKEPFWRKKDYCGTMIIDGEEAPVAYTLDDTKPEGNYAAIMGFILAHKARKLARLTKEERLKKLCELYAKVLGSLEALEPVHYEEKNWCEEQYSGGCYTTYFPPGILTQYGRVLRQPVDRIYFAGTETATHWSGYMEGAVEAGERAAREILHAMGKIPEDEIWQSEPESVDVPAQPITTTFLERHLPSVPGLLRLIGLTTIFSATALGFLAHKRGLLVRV

Homo sapiens = organism: Homo sapiens; assay: Selectivity index, ratio of IC50 for inhibition of human recombinant MAOA to IC50 for human recombinant MAOB
MAO-A [4] = target: T2, MAO-A; assay: Resistance index, ratio of IC50 for toloxatone to IC50 for test compound for inhibition of human recombinant MAOA using kynuramine substrate incubated for 20 mins by fluorescence spectrophotometry; assay type: toxicity; conditions: probe kynuramine, read-out: Ratio IC50
MAO-A [5] = target: T2, MAO-A; assay: Inhibition of human recombinant MAOA assessed as enzyme activity recovery level at 4 times IC50 using kynuramine substrate incubated for 15 mins followed by 24 hrs dialysis by fluorescence spectrophotometry; assay type: toxicity; parameters: scale not given: the % may be the effect or the level left; conditions: probe kynuramine, read-out: Activity
[6] = target: T3, Amine oxidase [flavin-containing] B; assay: Time dependent inhibition of human recombinant MAOB at 0.25 to 1.25 uM using kynuramine substrate by fluorescence spectrophotometry based graphing of slopes of Lineweaver-Burk plots versus inhibitor concentration
[7] = target: T3, Amine oxidase [flavin-containing] B; assay: Inhibition of human recombinant MAOB using kynuramine substrate incubated for 20 mins by fluorescence spectrophotometry
[8] = target: T3, Amine oxidase [flavin-containing] B; assay: Inhibition of human recombinant MAOB assessed as enzyme activity recovery level at 4 times IC50 using kynuramine substrate incubated for 15 mins followed by 24 hrs dialysis by fluorescence spectrophotometry; parameters: scale not given: the % may be the effect or the level left; conditions: 0.25 h
[9] = target: T3, Amine oxidase [flavin-containing] B; assay: Time dependent inhibition of human recombinant MAOB at […] using kynuramine substrate incubated for 5 to 35 mins by fluorescence spectrophotometry; conditions: TDE = time-dependent effect, time 5-35 min
[10] = target: T3, Amine oxidase [flavin-containing] B; assay: Inhibition of human recombinant MAOB assessed as enzyme activity recovery level at 4 times IC50 using kynuramine substrate incubated for 15 mins followed by without dialysis by fluorescence spectrophotometry; parameters: scale not given: the % may be the effect or the level left; conditions: 0.25 h
[11] = target: T4, Amine oxidase [flavin-containing] B (Rattus norvegicus, UniProt P19643); assay: Inhibition of rat brain MAOB using kynuramine substrate by fluorescence spectrophotometry
T4 sequence (P19643 whole entry): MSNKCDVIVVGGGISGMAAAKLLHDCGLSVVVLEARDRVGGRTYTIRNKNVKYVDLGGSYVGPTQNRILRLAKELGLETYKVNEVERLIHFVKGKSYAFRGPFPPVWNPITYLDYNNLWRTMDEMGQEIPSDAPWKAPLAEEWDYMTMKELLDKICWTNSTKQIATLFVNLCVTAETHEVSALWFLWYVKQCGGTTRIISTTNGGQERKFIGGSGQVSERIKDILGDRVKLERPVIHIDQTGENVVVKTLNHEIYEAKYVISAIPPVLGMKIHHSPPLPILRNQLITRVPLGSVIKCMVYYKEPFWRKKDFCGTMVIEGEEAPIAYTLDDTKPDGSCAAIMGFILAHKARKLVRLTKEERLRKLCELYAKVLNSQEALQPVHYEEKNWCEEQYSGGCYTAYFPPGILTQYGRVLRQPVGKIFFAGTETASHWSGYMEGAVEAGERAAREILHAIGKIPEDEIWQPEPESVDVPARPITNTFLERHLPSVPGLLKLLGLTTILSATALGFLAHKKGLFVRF

[12] = target: T5, Amine oxidase [flavin-containing] A (Rattus norvegicus, UniProt P21396); assay: Inhibition of rat brain MAOA using kynuramine substrate by fluorescence spectrophotometry; assay type: toxicity
T5 sequence (P21396 whole entry): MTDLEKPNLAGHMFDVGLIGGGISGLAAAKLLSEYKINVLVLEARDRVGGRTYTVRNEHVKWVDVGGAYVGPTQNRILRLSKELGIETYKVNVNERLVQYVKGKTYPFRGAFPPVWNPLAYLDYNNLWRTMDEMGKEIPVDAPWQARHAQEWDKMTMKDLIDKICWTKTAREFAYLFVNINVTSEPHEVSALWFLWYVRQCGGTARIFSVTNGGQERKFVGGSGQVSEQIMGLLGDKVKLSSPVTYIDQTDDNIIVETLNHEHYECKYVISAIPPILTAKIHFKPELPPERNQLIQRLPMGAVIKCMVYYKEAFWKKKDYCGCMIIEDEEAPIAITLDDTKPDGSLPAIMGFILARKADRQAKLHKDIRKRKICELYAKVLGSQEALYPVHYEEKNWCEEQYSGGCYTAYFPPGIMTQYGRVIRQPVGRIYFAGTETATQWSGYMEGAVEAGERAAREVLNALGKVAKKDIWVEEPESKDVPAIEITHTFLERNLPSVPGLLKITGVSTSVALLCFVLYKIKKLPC

MAO-A [13] = target: T2, MAO-A; assay: Inhibition of human recombinant MAOA assessed as enzyme activity recovery level using kynuramine substrate incubated for 15 mins followed by 24 hrs dialysis by fluorescence spectrophotometry; assay type: toxicity; parameters: scale not given: the % may be the effect or the level left; conditions: probe kynuramine, read-out: Activity
Rattus norvegicus = organism: Rattus norvegicus; assay: Selectivity index, ratio of IC50 for inhibition of rat brain MAOA to IC50 for rat brain MAOB

**Q.** Which IC50 [1] does the source give for C#CCNC1CCc2ccccc2C1 (racemic) here?
**A.** 721 nM

**Q.** What about the activity at 0.25 h (MAO-A [2]) of the same compound?
**A.** 46%

**Q.** What about the Ki [3] of the same compound?
**A.** 460 nM

**Q.** What about the Ratio IC50 (Homo sapiens) of the same compound?
**A.** 0.05

**Q.** And the selectivity ratio at 20 min (MAO-A [4])?
**A.** 5

**Q.** What about the activity at 0.25 h (MAO-A [5]) of the same compound?
**A.** 102%

**Q.** And the Ki [6]?
**A.** 435 nM

**Q.** What about the IC50 [7] of the same compound?
**A.** 14600 nM

**Q.** And the Activity [8]?
**A.** 7.5%

**Q.** What about the TDI [9] of the same compound?
**A.** Tde

**Q.** And the Activity [10]?
**A.** 0.3%

**Q.** Which IC50 [11] does the source give for C#CCN(C)C1CCc2ccccc2C1 (single isomer, unassigned; (+)) [listing 1 of 2 here] here?
**A.** 16 nM

**Q.** What about the IC50 [12] of the same compound?
**A.** 140 nM

**Q.** How did the activity at 0.25 h (MAO-A [13]) turn out when C#CCN(C)Cc1ccccc1 [PARGYLINE] was run?
**A.** 0.9%

**Q.** Which Ratio IC50 (Rattus norvegicus) does the source give for C#CCN(C)C1CCc2ccccc2C1 (racemic) [listing 1 of 2 here] here?
**A.** 1.2

**Q.** C#CCN(C)C1CCc2ccccc2C1 (single isomer, unassigned; (-)) [listing 1 of 2 here] was tested. Which IC50 [11] did it give?
**A.** 88 nM

**Q.** What about the IC50 [12] of the same compound?
**A.** 46 nM

**Q.** For C#CCN(C)C1CCc2ccccc2C1 (single isomer, unassigned; (-)) [listing 2 of 2 here], which Ratio IC50 (Rattus norvegicus) is on record?
**A.** 0.5

**Q.** How did the IC50 [11] turn out when C#CCN(C)C1CCc2ccccc2C1 (racemic) [listing 2 of 2 here] was run?
**A.** 41 nM

**Q.** What about the IC50 [12] of the same compound?
**A.** 51 nM

**Q.** With C#CCN(C)C1CCc2ccccc2C1 (single isomer, unassigned; (+)) [listing 2 of 2 here] as the compound, how does the Ratio IC50 (Rattus norvegicus) read?
**A.** 8.8
